# Experimental data as given in patent publication US20160220569A1, “CDK4/6 Inhibitor Dosage Formulations For The Protection Of Hematopoietic Stem And Progenitor Cells During Chemotherapy” (G1 Therapeutics, Inc., priority 2015, published 2016).
# Experiment: 14-day toxicokinetic study in dogs
# Format: in vivo, dogs (Beagle)
# Details: male and female dogs
# Protocol: Dogs in the control group were not exposed to Compound 1 and so were a true control group.
# The required weight of Compound 1 di-HCl was added to an appropriate size vessel. […] The vessel was placed on a stirring hotplate and the formulation heated to a temperature of 30-35° C. The contents of the vessel were allowed to stir at 30-35° C. or a stir plate until all test article appeared to be dissolved, and for a period of at least 1 hour. The pH of the formulation was verified and adjusted to 4.0-4.5 using 1N HCl or 1N NaOH as required. The formulation was transferred into an appropriate size graduated cylinder. Sufficient vehicle control will be added to the cylinder to obtain the final desired concentration of formulated test article. The completed stock formulation was dispensed into several amber glass bottles as aliquots for each day of dosing. These formulations were stored at controlled room temperature (15-30° C.) until used for dose administration.
# The beagle dog was chosen for this study as it is a species that is used for non-clinical toxicity and pharmacokinetic evaluations and satisfies the regulatory requirement for non-clinical safety studies in a non-rodent species. […]
smiles,measurement,value
"CN1CCN(c2ccc(Nc3ncc4cc5n(c4n3)C3(CCCCC3)CNC5=O)nc2)CC1 [Compound 1, 2′-((5-(4-methylpiperazin-1-yl)pyridin-2-yl)amino)-7′,8′-dihydro-6′H-spiro[cyclohexane-1,9′-pyrazino[1′,2′:1,5]pyrrolo[2,3-d]pyrimidin]-6′-one]",systemic exposure with increasing dose level,increased roughly proportionally
